Experimental data published in patent publication US6723741B2, “Benzimidazoles and benzothiazoles and uses thereof” (Synaptic Pharmaceutical Corporation, priority 1996, dated 2004).

How the values were obtained:
[1] = biological target: T1, human α1A adrenergic receptor (Homo sapiens, UniProt P25100); assay: Radioligand binding assay, [3H]prazosin competition; conditions: cloned human α1A (old nomenclature; = α1D), LM(tk-) cell membranes, read-out: pKi Alpha-1 A (converted)
T1 construct: expressed in transfected cells
T1 sequence (P25100 1-572): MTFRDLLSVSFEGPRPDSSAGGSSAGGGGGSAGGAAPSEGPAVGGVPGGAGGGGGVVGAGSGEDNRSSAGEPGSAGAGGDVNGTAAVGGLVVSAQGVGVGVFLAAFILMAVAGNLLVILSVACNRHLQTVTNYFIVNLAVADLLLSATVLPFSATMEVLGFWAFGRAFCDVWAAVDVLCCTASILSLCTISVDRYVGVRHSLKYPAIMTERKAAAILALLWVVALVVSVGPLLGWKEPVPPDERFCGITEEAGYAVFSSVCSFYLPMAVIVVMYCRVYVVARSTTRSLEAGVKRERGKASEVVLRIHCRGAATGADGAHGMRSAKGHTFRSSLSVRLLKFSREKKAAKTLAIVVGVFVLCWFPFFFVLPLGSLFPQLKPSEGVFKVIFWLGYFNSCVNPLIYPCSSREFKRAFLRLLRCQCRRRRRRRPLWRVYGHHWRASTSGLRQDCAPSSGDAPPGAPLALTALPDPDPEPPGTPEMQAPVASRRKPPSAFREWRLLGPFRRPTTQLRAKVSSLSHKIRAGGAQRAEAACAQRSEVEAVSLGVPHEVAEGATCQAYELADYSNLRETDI
Procedure: (§1) Equilibrium competition binding assays were performed with membrane preparations from cultured LM(tk^−) cells stably transfected with the cloned human alpha adrenoreceptor subtypes except for α2b, which was expressed in Y-1 cells, using [^3H] prazosin for α1 receptors and [^3H] rauwolscine for α2 receptors. Further details of pharmacological evaluations of claimed compounds are described in Example 21.
(§2) The cloned human alpha-1 adrenergic receptor subtypes referred to throughout this application as α1A, α1B, and α1C have recently been assigned new subtype designations by the IUPHAR Nomenclature Committee as outlined in the 1995 Receptor and Ion Channel Nomenclature Supplement (Watson and Girdlestone, 1995). In the new nomenclature system the cloned human α1A receptor referred to herein was given the appellation “α1D,” while the cloned human α1C receptor referred to herein was given the appellation “α1A”. However, throughout this application and the supporting tables and figures the old nomenclature will be used to describe the cloned human alpha-1 adrenergic receptor subtypes. The old nomenclature is used throughout this application because stable cell lines expressing the cloned human alpha-1 adrenergic receptors were produced and deposited with the ATCC according to the Budapest Treaty for the Deposit of Microorganisms, under designations assigned before the nomenclature change.
The construct involved the ligation of partial overlapping human lymphocyte genomic and hippocampal cDNA clones: 5′ sequences were contained on a 1.2 kb SmaI-XhoI genomic fragment (the vector-derived BamHI site was used for subcloning instead of the internal insert-derived SmaI site) and 3′ sequences were contained on 1.3 kb XhoI-ClaI cDNA fragment (the ClaI site was from the vector polylinker). Stable cell lines were produced and selected as described above.
(§3) Transfected cells from culture flasks were scraped into 5 mL of 5 mM Tris-HCl, 5 mM EDTA, pH 7.5, and lysed by sonication. The cell lysates were centrifuged at 1000 rpm for 5 min at 4° C., and the supernatant was centrifuged at 30,000×g for 20 min at 4° C. The pellet was suspended in 50 mM Tris-HCl, 1 mM MgCl2, and 0.1% Ascorbic acid at pH 7.5. Binding of α2 antagonist [^3H] rauwolscine ([…]) to membrane preparations of LM(tk−) cells was done in a final volume of 0.25 mL and incubated at 37° C. for 20 min. Nonspecific binding was determined in the presence of 10 μM phentolamine. The reaction was stopped by filtration through GF/B filters using a cell harvester.

[2] = biological target: T2, human α1C adrenergic receptor (Homo sapiens, UniProt P35348); assay: as above; conditions: cloned human α1C (old nomenclature; = α1A), LM(tk-) cell membranes, read-out: pKi Alpha-1 C (converted)
T2 construct: expressed in transfected cells
T2 sequence (P35348 1-466): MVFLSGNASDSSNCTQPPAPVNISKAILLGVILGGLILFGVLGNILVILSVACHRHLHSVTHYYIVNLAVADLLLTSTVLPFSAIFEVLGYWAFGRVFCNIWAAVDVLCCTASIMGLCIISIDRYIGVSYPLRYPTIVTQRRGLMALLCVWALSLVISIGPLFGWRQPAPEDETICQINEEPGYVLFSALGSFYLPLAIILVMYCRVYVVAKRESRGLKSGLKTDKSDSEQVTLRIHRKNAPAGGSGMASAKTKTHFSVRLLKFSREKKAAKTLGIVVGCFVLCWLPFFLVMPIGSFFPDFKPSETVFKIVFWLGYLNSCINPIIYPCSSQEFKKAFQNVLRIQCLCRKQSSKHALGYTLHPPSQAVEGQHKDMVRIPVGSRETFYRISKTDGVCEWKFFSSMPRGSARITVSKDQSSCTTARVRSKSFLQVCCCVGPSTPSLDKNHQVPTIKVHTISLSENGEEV
Procedure: as §1, §2
The entire coding region of α1C (1401 bp), including 400 basepairs of 5′ untranslated sequence (5′ UT) and 200 p of 3′ untranslated sequences (3′ UT), was cloned into the KpnI site of the polylinker-modified pCEXV-3-derived eukaryotic expression vector, EXJ.RH. The construct involved ligation three partial overlapping fragments: a 5′ 0.6 kb HincII genomic clone, a central 1.8 EcoRI hippocampal cDNA clone, and a 3′ 0.6 Kb PstI genomic clone. The hippocampal cDNA fragment overlaps with the 5′ and 3′ genomic clones so that the HincII nad PstI sites at the 5′ and 3′ ends of the cDNA clone, respectively, were utilized for ligation. This full-length clone was cloned into the KpnI site of the expression vector, using the 5′ and 3′ KpnI sites of the fragment, derived from vector (i.e., pBluescript) and 3′-untranslated sequences, respectively. Stable cell lines were produced and selected as described above.
as §3

Row | Compound | Ki [1] [nM] | Ki [2] [nM]
1 | Brc1cc(NC2=NCCN2)cc2cc[nH]c12 [Example 2, 7-Bromo-5-(2-imidazolin-2-ylamino)indole] | 2.88 | 19.1
2 | N#Cc1cc(NC2=NCCN2)cc2cc[nH]c12 [Example 5, 7-Cyano-5-(2-imidazolin-2-ylamino)indole] | 162 | 1450
3 | CC(=O)c1cc(NC2=NCCN2)cc2cc[nH]c12 [Example 6, 7-Acetyl-5-(2-imidazolin-2-ylamino)indole] | 93.3 | 186
4 | c1nc2cc(NC3=NCCN3)ccc2s1 [Example 13, 5-(2-Imidazolin-2-ylamino)benzothiazole] | 186 | 708
5 | c1nc2ccc(NC3=NCCN3)cc2s1 [Example 14, 6-(2-Imidazolin-2-ylamino)benzothiazole] | 1700 | 2340
6 | c1nc2ccc(NC3=NCCS3)cc2s1 [Example 15, 6-(2-Thiazolin-2-ylamino)benzothiazole] | 6030 | 5750
